Data on 1 molecule can be found in paper PMC6452685, “Lysyl-tRNA synthetase as a drug target in malaria and cryptosporidiosis” (Proceedings of the National Academy of Sciences of the …, 2019).

As a reminder, the EC50 is the midpoint of the concentration-response curve. Low readings indicate an effect from little substance, high ones a need for much substance.

In one test the test system is Pf(K1). The test can be described thus: Drug resistant P. falciparum K1, [3H]-hypoxanthine incorporation. The test is classed as cell-based. The note with it: Plasmodium falciparum, chloroquine-resistant. From the text: 3.2 Cytotoxicity Studies (Dundee)
In vi t ro cy totox i ci ty s tudies can be ca rri ed out us i ng Hep G 2 (Human C aucas i an hepatocy te ca rci noma, ECACC cat. no. 850 114 30) us ed as i ndi cators f or g eneral mammal i an cel l tox i ci ty . […]
3.3 In vitro Cell Assay D ata Analysis (Du ndee) […]
as 0%. Qual i ty control c ri teri a for passi ng pl ates were as fol l ow s : Z’ > 0.
< 15 . T he f ormula used to calculate Z’ is 1- 3´ (St D e v _ hi gh + St D e v_ low) . […]
Al l EC50 Curve fitti ng was undertaken usi ng XLFi t versi on 4.2 usi ng Model 205 wi th the foll owi ng 4 paramet ri c equat i on: A + (?-A) ,where A=% i nhi bi ti on at bo ttom, B=% i nhi bi ti on at top, C= EC , […]
D= slope, x= inhibitor concentration a nd y= % inhibition. […]
was fixed to 100 only when at least 50% of inhibition was reached. […]
Hoffmann-La Ro che Ltd) a nd resi stant strai ns K1 and TM90C2B (fr om the Malaria Research an d Reference Reag ent Res ou rce C enter, accu rate d es cri pti ons of the g eneti c backg roun ds of thes e strains can be obtained at http://www.beiresources.org) were cultivated in a variation of the medium prev i ous l y des cri bed (5, 6), c onsi sti ng of RPMI 16 40 su ppl emented wi th 0.5% ALBUMAX® II, 25 m M Hepes , 25 mM NaHC O3 (pH 7. […] The re s ul t s were recorded and expressed as a percentage of the untreated controls. […]

For a further test, the system named is C. parvum. The test can be described thus: Anti-Cryptosporidium in vivo efficacy in NOD SCID gamma mice. The arrangement: species or system mouse. The method, then: INF-γ–knockout mice ([28], [29]) were infected orally with Nluc-expressing transgenic C. parvum oocysts. Treatment started upon patency 4 d postinfection (p.i.), and mice were treated orally once a day for 7 d. Infection was monitored daily by luciferase measurements in pooled feces of the entire cage. Mice were followed for 3 wk after completion of drug treatment. […] NOD SCID gamma mice were infected with C. parvum oocysts ([26]). Treatment started 7 d p.i., and mice were treated orally once a day for 7 d. The study was run with four mice per cage; infection was monitored by quantitative PCR on day eight for individual mice, and data are shown as oocysts per milligram of feces. […]
Data analysis was performed using GraphPad Prism 7.0 (GraphPad S oftware), Excel 2016 (Microsoft ) and R free so ftware (https://www.r-project.org) for data pl otti ng and s tati s ti cal model li ng. […]
The Nl uc-C. parvum IFN-γ-knockout (IFN-γ KO) m ouse in vivo experiments were run in acco rdance with the publ i s hed method (22). Briefly, female C57BL/ 6 IFN-γ KO mi ce, aged 6–8 weeks were infected with 10,000 C. parvum UG A1 Nl uc (Vi naya k et al 2015, Natu re) tra ns g eni c oocys ts . Mi ce (n=5 per g rou p) w ere admi ni s t ered 20 mg /k g of comp o und 5 fo rmul ated i n 3% et hanol , 7% Tw een 8 0, 90 % saline or t he f ormul at i on (v ehi cl e) by o ral g av ag e. […]

Another test deals with C. hominis (TU502). The test is described as follows: Activity against Cryptosporidium hominis. The test is classed as cell-based.

Experimental for C. hominis (TU502): Thi s i s bas ed on methods previ ousl y reported (14). Mature P. falciparum stage V gametocytes (NF54)
were incubated with test compound for 24 h at 3 7°C i n 384-well plates containing complete culture
medi um (RPMI 1640, 25 mM HEPES, 2 g/l D-glucose, 2 g/l sodium bicarbonate, 50 mg/l
Gametogenesis was triggered by dis pens i ng 10 µl ookinete medium (RPMI 1640, 25 mM HEPES, 2 g/l
D-glucose, 2 g/l sodium bicarbonate, 50 mg/l hy pox ant hi ne, 100 µM xanthurenic acid) also
contai ni ng 2. 7 µg/ml anti-Pfs25-Cy3 into each well and cooling the plate on a metal block at 4 °C fo r
4 mi n. Fi fteen s l ater male gametogenesis was recorded by b ri ghtfi el d i magi ng usi ng ti m e s 6 object i v e
and then the pl ate stored at 2 6 °C for a fu rther 24 h to allow female gametes to develop. Female
gamete formation was assessed by fluorescence m icroscopy using x6 objective to identify anti-Pfs25-
gentian violet negative and positive controls.
3.1 3 Act iv it y a gains t Cry pt os pori diu m h omi nis (CALIBR)
Thi s i s bas ed on methods previ ousl y reported (10).

In the case of `O=C(NCC1(O)CCC(F)(F)CC1)c1cc(=O)c2cc(F)ccc2o1` [Compound 5], the EC50 in the test with Pf(K1) amounted to 0.51 µM; with C. hominis (TU502) it was 6 µM. In addition, the “reduction in parasite levels compared with control” value in the test on C. parvum (NOD SCID gamma mouse, 20 mg/kg orally once a day for 7 d, day 8) was 100 fold. Further, in the test on C. parvum (dosed orally for 7 d, NOD SCID gamma mouse model), the “reduction of parasite burden” value is “two orders of magnitude”.
